The source of these data is patent US20160318844A1, “PROSTACYCLIN COMPOUNDS, COMPOSITIONS AND METHODS OF USE THEREOF” (Insmed Incorporated, priority 2015, published 2016).

Entries after “also recorded” stand apart in the source; their conditions may differ. Where two headings read alike, the source gives them in different places.

A short description of data set [1]: Particle size characterization of treprostinil compositions (QELS). Format: physicochemical. The following applies: compositions of Table 3, FIG. 2.
Protocol: The compositions in Table 3 were subject to particle size characterization.
All particle size measurements were performed using a Wyatt Technology Mobius™ Zeta Potential/Particle Sizing Instrument in Quasi-elastic light scattering (QELS) mode. Composition aliquots were diluted 10-fold in pre-filtered (0.02 μm pore filter) ultrapure of deionized H2O. Light scattering data was collected and converted into particle size and size distribution using Dynamics® v. 7.2.4 instrument software. Reported average particle size diameter is based on the cumulants model, which mathematically fits particle diffusion constants (determined by the raw scattering intensities of particles in a suspension) to obtain the particle size mean and a distribution of particle sizes around the mean diameter.
Particle uniformity was determined using the software-calculated polydispersity (% PD). Polydispersity is defined as the standard deviation of the particle size distribution from the mean particle size value. % PD normalizes the polydispersity to the mean diameter by dividing by the mean size and multiplying by 100. […]
Dynamics@ polydispersity parameter represents a monodisperse population of particles if % PD ≦15. A calculated % PD ≧57% represents a polydisperse population of particles.
In another data set the target is T1, EP2 prostanoid receptor (Homo sapiens, UniProt P43116).
T1 construct: host or cells: CHO-K1
Kind of data set: GloSensor cAMP assay in CHO-K1 cells co-transfected with the EP2 receptor. The data set is classed as cell-based. The following applies: for change of potency with incubation time: cAMP dose response curves, 0.5 hr to 8 hr; for ranking of activity: kinetic profile at 10 μM and 5 μM. From the text: cAMP is a second messenger involved in signal transduction of G-protein coupled receptors (GPCRs) acting through Gα-s and Gα-i proteins. Because the treprostinil receptor is a GPCR, the assay provides an indication of whether the respective prostacyclin compound (or metabolite thereof) binds its receptor and activates the GPCR cell signaling cascade. The GloSensorTM assay harnesses a genetically modified form of firefly luciferase into which a cAMP-binding protein moiety has been inserted. Upon binding of cAMP, a conformational change is induced leading to increased light output. The EP2 prostanoid receptor was cotransfected with the GioSensorm plasmid (Promega) into CHO-K cells as follows. CHO-K cells were harvested when the monoloayer was at 50-90% confluence. First, cells were washed with 5 mL PBS. […] The media was aspirated, and the cell pellet was resuspended in 10 mL of growth media. Cell number was determined using a hemacytometer. […] For small scale transfections of up to 20 wells, the pGLoSensor-22F cAMP plasmid (Promega, Cat #: E2301) (2 apg): […] Cat #: […] P2271) ratio was diluted to a final concentration of 12.6 ng/μL (total plasmid) in Opti-MEM I reduced-serum medium (Life Technologies, Cat #: 1985062). Next, 6 μL of FuGENE HD transfection reagent (Promega, Cat #: E2311) was added to 160 μL of diluted plasmid and mixed carefully by gentle pipetting. The complex was incubated at room temperature for 0 to 10 minutes, and then 8 μL of the complex was added per well of a 96 well white assay plate (Costar, Cat #: 3917) and gently mixed without disturbing the cell monolayer. […] Following incubation, cells were treated and analyzed. For larger scale transfections, the aforementioned steps were scaled up accordingly, and cells were frozen following the last incubation. In order to prepare frozen transfected CHO-K cells, the media was aspirated from culture flasks and cells were rinsed with 5 mL PBS. […] Cell number was determined using a hemacytometer. The media was aspirated, and the cell pellet was resuspended in freezing media (Millipore, cat #: S-002-SF) at 2.5×10^4 cells/vial. Transfected cells were incubated overnight at -80° C. before transfer to liquid nitrogen for long term storage. […] SH30071.03)). […] In preparation for cAMP measurement, the cells were equilibrated with the GloSensor cAMP reagent prior to treatment. For equilibration, the medium was carefully removed from the individual well. Next, 100 μL of equilibration medium ([…] of Glosensor Reagent stock solution (Promega, Cat #: E291), 10% FBS (Hydone, Cat #: SH30071.03) and 88% CO2 independent medium (Life Technologies, Cat #: 18045088)) was added per well of the 96-well plate, and added to the side of each well. The plate was then incubated for 2 hours at room temperature. A first pre-read measurement was taken using a microplate reader (MicroLumat Plus). Plates were incubated for an additional 10 minutes at room temperature, followed by a second pre-read measurement. […] Following treatment, each plate was read every 5 minutes for the duration of the assay using a microplate reader (MicroLumat Plus). In order to determine the fold change in cAMP relative to the control, the transfection efficiency was first determined by dividing the second pre-read measurement by the average of the corresponding pre-read measurements. Next, the normalized relative light units (RLUs) of the samples were determined by dividing the plate read measurement by the transfection efficiency. The fold change in cAMP relative to the control was then determined by dividing the normalized RLU of the samples by the normalized RLU of the control. The cAMP assay was validated using free treprostinil. […] Luminescence was then measured at room temperature. […] Nebulizer Aeroneb Pro (Aerogen) was used to nebulize treprostinil derivative compositions. Desired volume of the formulation (usually 3 mL) was loaded to the mesh head of the nebulizer. […]

Data set [2] in a line: Tolerability and pharmacokinetics in rats, inhaled C16-TR (T748) for 14-consecutive days. The data set is classed as in vivo, rat. The following applies: inhaled 0.6-18 μg/kg, formulation T748. As for the experimental part: Body weights were recorded daily and organ weights (lungs, heart, liver) were measured 24 hr. after the last drug dose.
For another data set, the system named is beagle dogs. Kind of data set: Clinical signs in dogs after inhalation. As for the experimental part:
(§1) Dosimetry was performed in propofol-anesthetized dogs in which nebulized drugs were introduced into a mixing chamber interposed on the inspiratory limb of a canine respirator. Technical trials were performed before each experiment to measure the concentration of drug (μg/L) delivered for each breath. The inhaled drug dose (μg/kg) was calculated using the formula: Inhaled Drug Dose (μg/kg)=Drug Conc. (μg/L)×Minute Ventilation (L/min.)×Time (min.)/Body Weight (kg). […] Clinical signs were monitored over this 72 hr. period.
(§2) Dosimetry was performed in propofol-anesthetized, artificially ventilated dogs in which nebulized drugs were introduced into a mixing chamber interposed on the inspiratory limb of the respirator. Technical trials were performed before each experiment measuring the concentration of drug (μg/L) per breath, minute ventilation and time required to achieve a targeted pulmonary dose. […] Clinical signs (cough, rapid shallow breathing, emesis and pale gums) were also monitored.

The nature of another data set: in vivo. The following applies: dog. As for the experimental part:
Twelve beagle dogs of either sex were randomly assigned to different inhaled doses of treprostinil in PBS or the compound of Formula (A) wherein R2=
Formulations were nebulized with an Aeroneb nebulizer (MMAD: 2.5-4 μm) delivered into a 500 m1 expansion chamber. Formulations were nebulized for 2 min at ventilator settings of 90 ml/breath, 15 breaths/min (delivered volume=2.7 L) and collected on a filter. Drug amount (μg) on the filter was measured by HPLC to calculate the concentration of drug delivered through the ventilator circuit (μg/L).
as §1, §2

The test system of another data set is guinea pigs. Kind of data set: Cough reflex in guinea pigs. Format: in vivo, guinea pig. As for the experimental part: Aerosols were generated with an Ultra-Neb Pro nebulizer (nebulizer output 0.36 mL/min.) that was mixed with inspired air delivered at a rate of 2 L/min. The PBS or drugs were delivered for 10 min. and the number of coughs recorded during and for 20 min. after the delivery. Coughs were detected by visual observations, plethysmograph recordings and cough sounds.

Data set [3] can be described thus: Treprostinil pharmacokinetics in anaesthetised, ventilated rats after nebulized dosing. The data set is classed as in vivo, rat. As for the experimental part:
Male Sprague Dawley rats were anaesthetised and prepared with endotracheal tube for ventilation. The right femoral vein was cannulated to facilitate blood collections. Terminal lung samples were taken for analysis only 6 hours after dosing. […] Systemic blood pressure (mSAP), heart rate (HR), and arterial oxygen saturation (Sa02). Physiologic parameters were measured during normoxia (fraction of inspired oxygen [FrO2]=0.21, SaO2≈90%) and for 2 to 3 hours during hypoxia (FrO2=0.10, SaO2≈50%).

For data set [4] the following is noted: rat, in vivo. As for the experimental part: Nebulized treprostinil (TRE) solution and treprostinil alkyl ester formulations were administered (at 15 nmol/kg, or […] TRE equivalent) to anaesthetised-ventilated rats (6-hour studies) or to conscious rats by nose-only inhalation (24-hour studies). Blood and lung samples were collected at specified time points. TRE and treprostinil alkyl ester concentrations in blood plasma and lung tissue were measured by HPLC/MS/MS analysis.
Male Sprague Dawley rats were placed in restraining tubes and exposed to nebulised drugs via the Jaeger-NYU Nose-Only Directed-Flow Inhalation Exposure System (CH Technologies, Westwood, N.J.) (FIG. 31). Test articles (6 mL at specific concentration) were nebulised using the Aeroneb nebuliser to deliver a predetermined estimated pulmonary dose. Blood and lung tissue samples were taken at selected times after nebulization of the drugs over a 24-hour period.

Where [5] appears, read: male, Sprague Dawley, rat, inhaled or intranasal, 6 ug/kg, plasma treprostinil, nebulized, estimated pulmonary dose of 6 μg/kg.

T1 sequence (P43116 whole entry): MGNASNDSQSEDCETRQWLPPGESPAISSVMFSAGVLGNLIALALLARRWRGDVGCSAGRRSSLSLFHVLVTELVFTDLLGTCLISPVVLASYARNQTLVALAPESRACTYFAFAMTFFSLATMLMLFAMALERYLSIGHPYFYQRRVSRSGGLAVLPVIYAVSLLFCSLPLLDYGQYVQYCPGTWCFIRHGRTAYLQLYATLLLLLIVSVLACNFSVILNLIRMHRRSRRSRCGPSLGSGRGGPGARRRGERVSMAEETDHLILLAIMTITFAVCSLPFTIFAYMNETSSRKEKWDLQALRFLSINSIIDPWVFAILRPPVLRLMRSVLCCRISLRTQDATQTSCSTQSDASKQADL

With “treprostinil decyl ester [Compound C10-TR]”, the “polydispersity (% PD)” value in data set [1] is reported as “around 15 % PD”. Further, the “duration of cAMP levels” value on EP2 prostanoid receptor (5 μM, FIG. 4 and FIG. 5) is on record as “sustained significantly longer than free treprostinil”. Also, on EP2 prostanoid receptor (10 μM, FIG. 3A), the “cAMP levels compared with free treprostinil” value is given as “equivalent to free treprostinil” and the “cAMP levels sustained for” value is “at least 6 hours”. In addition, at EP2 prostanoid receptor (compositions, 5 μM, FIG. 4), the “cAMP response compared with free treprostinil” value is recorded as “greater than or equivalent to the response induced by free treprostinil”. On EP2 prostanoid receptor (unformulated compounds, 5 μM, FIG. 5), the cAMP response levels result is “equivalent to free treprostinil”.
`CCCCCCCCCCCCCCCCOC(=O)COc1cccc2c1C[C@H]1C[C@@H](O)[C@H](CC[C@@H](O)CCCCC)[C@H]1C2` [Compound C16-TR, hexadecyl-treprostinil]: in data set [2], the “tolerability, body weights and organ weights” value is “no tolerability issues or significant changes (relative to PBS) in body weights and organ weights; also recorded: well tolerated”. Further, at EP2 prostanoid receptor, the “change of potency with incubation time” value is recorded as “increases with incubation time” and the ranking of activity result is “C12-TR>C14-TR>5-nonanyl-TR>C16-TR”.
For the molecule `CCCCC[C@H](O)CC[C@@H]1[C@H]2Cc3cccc(OCC(=O)O)c3C[C@H]2C[C@H]1O` [Treprostinil, (1R,2R,3aS,9aS)-[[2,3,3a,4,9,9a-hexahydro-2-hydroxy-1-[(3S)-3-hydroxyoctyl]-1H-benz[f]inden-5-yl]oxy]acetic acid], the “respiratory irritation (coughing, rapid shallow breathing)” value with beagle dogs (T623 inhaled doses as high as 46 μg/kg, treprostinil 5 and 16 μg/kg) is reported as “present during the recovery period”. In addition, the adverse clinical signs result in the data set on beagle dogs (targeted dose of 18 μg/kg) is given as “Adverse clinical signs were seen”. Besides, the Cmax in the data set “in vivo” (beagle, 18 ug/kg) is 5.9 ± 0.6 ng/mL; in “in vivo” (both, beagle, inhaled or intranasal, 5 ug/kg), 2.7 ng/mL; in “in vivo” (both, beagle, inhaled or intranasal, 16 ug/kg) it was 5.9 ng/mL; in data set [3] (setting [5]), 3.37 ng/mL; in data set [3] (male, Sprague Dawley, rat, inhaled, 6 ug/kg, plasma treprostinil, nebulized, estimated pulmonary dose of 6 μg/kg) it was 3.5 ng/mL. The “treprostinil plasma Cmax, fold higher than with T623 at similar inhaled doses” value in “in vivo” (both, beagle) is 15-20 fold. Also, the “period over which plasma levels of treprostinil were sustained” value in “in vivo” is listed as “disappeared within a few hours”. The “exposure concentration that consistently evokes cough” value with guinea pigs (aerosol 1-300 μg/ml) was no less than 30 µg/mL. For the same molecule, the cough bouts with guinea pigs (nebulized concentration of 30 μg/mL) is 1-4. Besides, the “guinea pigs with cough” value with guinea pigs (nebulized concentration of 30 μg/mL, 10 min. exposure) is 7 of 7. For the same molecule, the “total number of coughs” value with guinea pigs (nebulized concentration of 30 μg/mL, average) turned out to be 36±9 coughs. In data set [3], the “time by which measurable levels of TRE were no longer seen in the lungs” value was less than 6 h. In addition, the “time up to which measurable levels of TRE were seen in blood plasma” value in data set [3] is no more than 4 h. The AUC(0-t) in data set [3] (setting [5]) was 2.13 ng·h/mL. The Tmax in data set [3] (setting [5]) is 3 min. Further, at EP2 prostanoid receptor (10 μM, FIG. 3A), the “cAMP levels sustained for” value is recorded as “not exhibited”. The EC50 worked out at 0.2 µM on EP2 prostanoid receptor (4.5 hr incubation time, read-out: EC50 (μM) 4.5 hr); 0.29 µM at EP2 prostanoid receptor (6.0 hr incubation time, read-out: EC50 (μM) 6.0 hr); 0.44 µM on EP2 prostanoid receptor (8.0 hr incubation time, read-out: EC50 (μM) 8.0 hr); 0.18 µM at EP2 prostanoid receptor (EC50 (μM) 0.5 hr, 0.5 hr incubation time); 0.28 µM on EP2 prostanoid receptor (EC50 (μM) 1.0 hr, 1.0 hr incubation time); 0.15 µM at EP2 prostanoid receptor (EC50 (μM) 2.0 hr, 2.0 hr incubation time). In addition, the EC50 on EP2 prostanoid receptor (EC50 (μM) 3.0 hr, 3.0 hr incubation time) was found to be 0.16 µM; on EP2 prostanoid receptor (EC50 (μM) 4.0 hr, 4.0 hr incubation time), 0.19 µM; on EP2 prostanoid receptor (EC50 (μM) 5.0 hr, 5.0 hr incubation time), 0.26 µM; on EP2 prostanoid receptor (EC50 (μM) 7.0 hr, 7.0 hr incubation time) it was 0.46 µM. Also, the “Max cAMP level (Fold)” value at EP2 prostanoid receptor (Table 4, compositions of FIGS. 3A-3C (10 μM, 1 μM, 0.1 μM), 8 hours time course) is given as roughly 16 Fold; at EP2 prostanoid receptor (Table 5, 5 μM, FIG. 4, 8 hours time course) it was roughly 14 Fold; on EP2 prostanoid receptor (Table 6, effect of nebulization, head (5 μM), FIG. 6), roughly 15 Fold. Moreover, the “change of potency with incubation time” value at EP2 prostanoid receptor is listed as “potency decreases with increasing incubation time”.
`CCCCCCCCCCCCCCOC(=O)COc1cccc2c1C[C@H]1C[C@@H](O)[C@H](CC[C@@H](O)CCCCC)[C@H]1C2` [Compound C14-TR, tetradecyl-treprostinil]: in data set [1], the “polydispersity (% PD)” value is “around 15 % PD”. Further, the “immediately post dose (IPD)” value in data set [4] was determined as 0.0104 mg/kg. For the same molecule, on EP2 prostanoid receptor, the “change of potency with incubation time” value is listed as “increases with incubation time” and the ranking of activity result was “C12-TR>C14-TR>5-nonanyl-TR>C16-TR”.
